Assay results as given in US20220062240A1, “METHODS OF TREATING CANCER USING A CLK INHIBITOR” (BioSplice Therapeutics, Inc., priority 2018, published 2022).
Read-outs that look alike come from different tables or passages of the source.

What was measured:
[1] = system: colorectal cancer (6 cell lines); experiment: CellTiter-Glo Viability Assay, colorectal cancer; type: cell-based; details: Homo sapiens, inhibition of cancer cell proliferation
[2] = system: liver cancer (3 cell lines); experiment: CellTiter-Glo Viability Assay, liver cancer; type: cell-based; details: Homo sapiens, inhibition of cancer cell proliferation
[3] = system: ovarian cancer (4 cell lines); experiment: CellTiter-Glo Viability Assay, ovarian cancer; type: cell-based; details: Homo sapiens, inhibition of cancer cell proliferation
[4] = system: lung cancer (4 cell lines); experiment: CellTiter-Glo Viability Assay, lung cancer; type: cell-based; details: Homo sapiens, inhibition of cancer cell proliferation
[5] = system: prostate cancer (5 cell lines); experiment: CellTiter-Glo Viability Assay, prostate cancer; type: cell-based; details: Homo sapiens
T47D = experiment: CellTiter-Glo Viability Assay, breast cancer; type: cell-based; details: Homo sapiens, 96 h, breast cancer, four days, read-out: EC50
CAMA1 = experiment: CellTiter-Glo Viability Assay, breast cancer; type: cell-based; details: Homo sapiens, CAMA-1, 96 h; CAMA1, breast cancer, four days; read-out: EC50
BT-549 = experiment: CellTiter-Glo Viability Assay, breast cancer; type: cell-based; details: Homo sapiens, 96 h; BT-549, breast cancer, four days; read-out: EC50
MCF7 = experiment: CellTiter-Glo Viability Assay, breast cancer; type: cell-based; details: Homo sapiens, 96 h; MCF7, breast cancer, four days; read-out: EC50
MDA-MB-231-Luc = experiment: CellTiter-Glo Viability Assay, breast cancer; type: cell-based; details: Homo sapiens, 96 h; MDA-MB-231-Luc, breast cancer, four days; read-out: EC50
DU4475 = experiment: CellTiter-Glo Viability Assay, breast cancer; type: cell-based; details: Homo sapiens, DU-4475, 96 h; DU4475, breast cancer, four days; read-out: EC50
HCC1599 = experiment: CellTiter-Glo Viability Assay, breast cancer; type: cell-based; details: Homo sapiens, 96 h; HCC1599, breast cancer, four days; read-out: EC50
ZR-75-1 = experiment: CellTiter-Glo Viability Assay, breast cancer; type: cell-based; details: Homo sapiens, 96 h; ZR-75-1, breast cancer, four days; read-out: EC50
CLK2 = target: T1, CLK2 (Homo sapiens, UniProt P49760); experiment: CLK2 kinase activity assay (Z-lyte, Ser/Thr 6 peptide); type: biochemical; details: recombinant CLK2 kinase, ATP 60 μM; read-out: EC50
T1 construct: purchased Thermo Fisher (Life Technologies), Z'-LYTE Kinase Assay Kits
Method: All reactions were performed in duplicate.

all 50 cell lines = experiment: CellTiter-Glo Viability Assay, average across all cell lines; type: cell-based; details: Homo sapiens; across all 50 cell lines; read-out: average EC50 for inhibition of cancer cell proliferation
How it was run: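 Cancer cell lines of several tumour types plated at 300-3,000 cells/well and exposed to compound in duplicate for four days at 37° C, 5% CO2, with DMSO-treated controls. Viability read by CellTiter-Glo luminescence (ATP content); EC50 derived from dose-response curves.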

CLK3 = CLK3 (Homo sapiens, UniProt P49761); experiment: CLK3 kinase activity assay (Z-lyte, Ser/Thr 18 peptide)
[6] = system: haematopoietic & lymphoid tumors (13 cell lines); experiment: CellTiter-Glo Viability Assay, haematopoietic & lymphoid tumors; type: cell-based; details: Homo sapiens, inhibition of cancer cell proliferation
[7] = system: pancreatic cancer (8 cell lines); experiment: CellTiter-Glo Viability Assay, pancreatic cancer; type: cell-based; details: Homo sapiens, inhibition of cancer cell proliferation
[8] = HCT-116, HCT116 cell line, read-out: Colorectal cancer, EC50 (μM) HCT116
[9] = HT-29, HT29 cell line, read-out: Colorectal cancer, EC50 (μM) HT29
[10] = SW-620, SW620 cell line, read-out: Colorectal cancer, EC50 (μM) SW620
[11] = DLD-1 cell line, read-out: Colorectal cancer, EC50 (μM) DLD-1
[12] = SW48 cell line, read-out: Colorectal cancer, EC50 (μM) SW48
[13] = SNU-398, SNU398 cell line, read-out: Liver cancer, EC50 SNU398
[14] = HEPG2 cell line, read-out: Liver cancer, EC50 HEPG2
[15] = PLC/PRF/5 cell line, read-out: Liver cancer, EC50 PLC/PRF/5
[16] = PA-1, PA1 cell line, read-out: Ovarian cancer, EC50 (μM) PA1
[17] = TOV112D, TOV-112D cell line, read-out: Ovarian cancer, EC50 (μM) TOV-112D
[18] = OV-90 cell line, read-out: Ovarian cancer, EC50 (μM) OV-90
[19] = OVCAR-3 cell line, read-out: Ovarian cancer, EC50 (μM) OVCAR-3
[20] = A-427, A427 cell line, read-out: Lung cancer, EC50 (μM) A427
[21] = HCC78, HCC-78 cell line, read-out: Lung cancer, EC50 (μM) HCC-78
[22] = NCI-H460 cell line, read-out: Lung cancer, EC50 (μM) NCI-H460
[23] = NCI-H522 cell line, read-out: Lung cancer, EC50 (μM) NCI-H522
[24] = DU-145, read-out: Prostate cancer EC50 Du-145
[25] = PC-3, PC3 cell line, inhibition of cancer cell proliferation, read-out: Prostate cancer EC50 PC3
[26] = 22Rv1 cell line, inhibition of cancer cell proliferation, read-out: Prostate cancer EC50 22Rv1
[27] = LNCap clone FGC cell line, inhibition of cancer cell proliferation, read-out: Prostate cancer EC50 LNCap clone FGC
[28] = VCaP (Sigma) cell line, inhibition of cancer cell proliferation, read-out: Prostate cancer EC50 VCaP (Sigma)
[29] = DND41, DND-41 cell line, read-out: Haematopoietic & Lymphoid tumors, EC50 (μM) DND-41
[30] = MV4-11, MV-4-11 cell line, read-out: Haematopoietic & Lymphoid tumors, EC50 (μM) MV-4-11
[31] = Rec1, REC-1 cell line, read-out: Haematopoietic & Lymphoid tumors, EC50 (μM) REC-1
[32] = SU-DHL-4, SUDHL4 cell line, read-out: Haematopoietic & Lymphoid tumors, EC50 (μM) SUDHL4
[33] = HL-60 cell line, read-out: Haematopoietic & Lymphoid tumors, EC50 (μM) HL-60
[34] = JM1 cell line, read-out: Haematopoietic & Lymphoid tumors, EC50 (μM) JM1
[35] = JURKAT, Clone E6-1 cell line, read-out: Haematopoietic & Lymphoid tumors, EC50 (μM) JURKAT, Clone E6-1
[36] = JeKo-1 cell line, read-out: Haematopoietic & Lymphoid tumors, EC50 (μM) JeKo-1
[37] = KASUMI-1 cell line, read-out: Haematopoietic & Lymphoid tumors, EC50 (μM) KASUMI-1
[38] = Loucy cell line, read-out: Haematopoietic & Lymphoid tumors, EC50 (μM) Loucy
[39] = MOLT-4 cell line, read-out: Haematopoietic & Lymphoid tumors, EC50 (μM) MOLT-4
[40] = TF-1 cell line, read-out: Haematopoietic & Lymphoid tumors, EC50 (μM) TF-1
[41] = TOLEDO cell line, read-out: Haematopoietic & Lymphoid tumors, EC50 (μM) TOLEDO
[42] = BXPC-3, BxPC3 cell line, read-out: Pancreatic cancer, EC50 BxPC3
[43] = CAPAN-1, Capan1 cell line, read-out: Pancreatic cancer, EC50 Capan1
[44] = Capan-2, Capan2 cell line, read-out: Pancreatic cancer, EC50 Capan2
[45] = MIA PaCa-2 cell line, read-out: Pancreatic cancer, EC50 MIA PaCa-2
[46] = PANC 05.04 cell line, read-out: Pancreatic cancer, EC50 PANC 05.04
[47] = PANC-1 cell line, read-out: Pancreatic cancer, EC50 PANC-1
[48] = UPAFII cell line, read-out: Pancreatic cancer, EC50 UPAFII

Chain of CLK3 (P49761 whole entry): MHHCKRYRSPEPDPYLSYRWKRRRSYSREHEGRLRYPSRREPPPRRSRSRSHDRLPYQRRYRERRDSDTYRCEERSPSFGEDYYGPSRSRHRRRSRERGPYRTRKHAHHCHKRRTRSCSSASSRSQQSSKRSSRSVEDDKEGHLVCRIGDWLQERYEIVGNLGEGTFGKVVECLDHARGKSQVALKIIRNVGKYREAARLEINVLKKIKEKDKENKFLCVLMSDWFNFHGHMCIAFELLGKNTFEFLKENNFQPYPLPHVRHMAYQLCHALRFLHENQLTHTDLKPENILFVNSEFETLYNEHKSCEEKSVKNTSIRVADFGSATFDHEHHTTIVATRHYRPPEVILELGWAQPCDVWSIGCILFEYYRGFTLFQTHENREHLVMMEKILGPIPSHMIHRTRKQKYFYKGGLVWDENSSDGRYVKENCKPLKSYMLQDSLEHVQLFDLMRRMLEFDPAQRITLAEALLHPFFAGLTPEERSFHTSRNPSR
T1 sequence (P49760 whole entry): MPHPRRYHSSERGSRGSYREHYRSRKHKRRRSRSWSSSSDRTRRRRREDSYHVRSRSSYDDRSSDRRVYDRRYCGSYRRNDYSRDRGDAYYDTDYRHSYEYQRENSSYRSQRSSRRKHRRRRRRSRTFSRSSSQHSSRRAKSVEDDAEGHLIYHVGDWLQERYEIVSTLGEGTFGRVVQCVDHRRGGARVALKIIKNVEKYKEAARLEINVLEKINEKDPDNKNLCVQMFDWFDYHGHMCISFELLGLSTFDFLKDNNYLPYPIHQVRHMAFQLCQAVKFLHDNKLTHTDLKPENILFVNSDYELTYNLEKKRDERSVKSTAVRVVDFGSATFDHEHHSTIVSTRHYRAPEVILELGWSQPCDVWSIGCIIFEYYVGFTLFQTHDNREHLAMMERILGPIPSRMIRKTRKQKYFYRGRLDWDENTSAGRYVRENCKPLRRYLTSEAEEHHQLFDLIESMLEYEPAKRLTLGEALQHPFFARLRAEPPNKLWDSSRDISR

`CN(C)Cc1cncc(-c2ccc3[nH]nc(-c4cc5c(-c6ccoc6)ccnc5[nH]4)c3c2)c1` [Compound 51] was tested, and the EC50 [1, 8] was 3.45 µM, the EC50 [1, 9] was > 10 µM and the EC50 [1, 10] was 2.34 µM. For the same compound, the EC50 [1, 11] was 1.64 µM, the EC50 [1, 12] was 3.77 µM and the EC50 [2, 13] was 232 nM. For the same compound, the EC50 [2, 14] was > 10000 nM, the EC50 [2, 15] was > 10000 nM and the EC50 [3, 16] was 8.98 µM. For the same compound, the EC50 [3, 17] was > 10 µM, the EC50 [3, 18] was > 10 µM and the EC50 [3, 19] was 3.22 µM. For the same compound, the EC50 [4, 20] was > 10 µM, the EC50 [4, 21] was > 10 µM and the EC50 [4, 22] was > 10 µM. For the same compound, the EC50 [4, 23] was 5.83 µM, the EC50 [5, 24] was > 10000 nM and the EC50 [5, 25] was 7870 nM. For the same compound, the EC50 [5, 26] was 859 nM, the EC50 [5, 27] was > 10000 nM and the EC50 [5, 28] was > 10000 nM. The EC50 (T47D) was > 10000 nM, the EC50 (CAMA1) was > 10000 nM and the EC50 (BT-549) was > 10000 nM. For the same compound, the EC50 (MCF7) was > 10000 nM, the EC50 (MDA-MB-231-Luc) was > 10000 nM and the EC50 (DU4475) was 7190 nM. The EC50 (HCC1599) was 407 nM, the EC50 (ZR-75-1) was > 10000 nM and the EC50 (CLK2) was 1.4 nM. It also gave an EC50 (all 50 cell lines) of 6510 nM, an EC50 (CLK3) of 31 nM and an EC50 [6, 29] of 0.853 µM. It also gave an EC50 [6, 30] of 0.406 µM, an EC50 [6, 31] of 0.527 µM and an EC50 [6, 32] of 0.501 µM. The EC50 [6, 33] was 9.46 µM, the EC50 [6, 34] was 0.195 µM and the EC50 [6, 35] was 2.79 µM. The EC50 [6, 36] was 0.713 µM, the EC50 [6, 37] was 5.07 µM and the EC50 [6, 38] was 1.28 µM. The EC50 [6, 39] was 7.26 µM, the EC50 [6, 40] was 7.92 µM and the EC50 [6, 41] was 0.302 µM. The EC50 [7, 42] was > 10000 nM, the EC50 [7, 43] was > 10000 nM and the EC50 [7, 44] was > 10000 nM. For the same compound, the EC50 [7, 45] was 3520 nM, the EC50 [7, 46] was > 10000 nM and the EC50 [7, 47] was > 10000 nM. The EC50 [7, 48] was 8920 nM.
Work on `CS(=O)(=O)NCc1cc(F)cc(-c2nccc3[nH]c(-c4n[nH]c5ccc(-c6cncc(NC(=O)C7CCC7)c6)cc45)cc23)c1` [Compound 53] yielded an EC50 [1, 8] of 0.749 µM, an EC50 [1, 9] of 8.88 µM and an EC50 [1, 10] of 0.385 µM. It also gave an EC50 [1, 11] of 3.57 µM, an EC50 [1, 12] of 0.861 µM and an EC50 ([1]; SW480 cell line, read-out: Colorectal cancer, EC50 (μM) SW480) of 0.305 µM. The EC50 [2, 13] was 79 nM, the EC50 [2, 14] was 2090 nM and the EC50 [2, 15] was > 10000 nM. The EC50 [3, 16] was 2.29 µM, the EC50 [3, 17] was 0.446 µM and the EC50 [3, 18] was 1.6 µM. The EC50 [3, 19] was 0.145 µM, the EC50 [4, 20] was 0.23 µM and the EC50 [4, 21] was 0.961 µM. The EC50 [4, 22] was > 10 µM, the EC50 [4, 23] was 0.327 µM and the EC50 [5, 24] was 1160 nM. For the same compound, the EC50 [5, 25] was 473 nM, the EC50 [5, 26] was 563 nM and the EC50 [5, 27] was 2820 nM. For the same compound, the EC50 [5, 28] was 2460 nM, the EC50 (T47D) was 455 nM and the EC50 (CAMA1) was 340 nM. The EC50 (BT-549) was 761 nM, the EC50 (MCF7) was 6390 nM and the EC50 (MDA-MB-231-Luc) was 1500 nM. The EC50 (DU4475) was 3130 nM, the EC50 (HCC1599) was 209 nM and the EC50 (ZR-75-1) was 1280 nM. It also gave an EC50 (CLK2) of 9.7 nM, an EC50 (all 50 cell lines) of 2120 nM and an EC50 (CLK3) of 27.5 nM. It also gave an EC50 [6, 29] of 0.176 µM, an EC50 [6, 30] of 0.046 µM and an EC50 [6, 31] of 7.2 µM. It also gave an EC50 [6, 32] of 0.477 µM, an EC50 [6, 33] of 1.02 µM and an EC50 [6, 34] of 0.222 µM. For the same compound, the EC50 [6, 35] was 2.44 µM, the EC50 [6, 36] was 0.088 µM and the EC50 [6, 37] was 0.804 µM. The EC50 [6, 38] was 0.15 µM, the EC50 [6, 39] was 2.02 µM and the EC50 [6, 40] was 4.7 µM. The EC50 [6, 41] was 0.249 µM, the EC50 [7, 42] was 3540 nM and the EC50 [7, 43] was 1810 nM. It also gave an EC50 [7, 44] of 3000 nM, an EC50 [7, 45] of 220 nM and an EC50 [7, 46] of 2120 nM. The EC50 [7, 47] was > 10000 nM and the EC50 [7, 48] was 1290 nM.
